Species on record: Rattus norvegicus
Test: DrugMatrix - Regimen: Daily Repeat
Assay type: toxicity, organism-based, Sprague-Dawley
Set-up: regimen Daily Repeat, gender Male, age 6-8 weeks
Settings: in vivo, po, route oral GAVAGE, vehicle .5 % CMC; for ABSOLUTE BASOPHIL / ABSOLUTE EOSINOPHIL / ABSOLUTE LYMPHOCYTE / ABSOLUTE MONOCYTE / ABSOLUTE SEGMENTED NEUTROPHIL / BASOPHIL / EOSINOPHIL / ERYTHROCYTE COUNT / HEMATOCRIT / HEMOGLOBIN / LEUKOCYTE COUNT / LYMPHOCYTE / MEAN CORPUSCULAR HEMOGLOBIN / MEAN CORPUSCULAR HEMOGLOBIN CONCENTRATION / MEAN CORPUSCULAR VOLUME / MONOCYTE / NEUTROPHIL / NUCLEATED RED BLOOD CELLS / PLATELET COUNT: tissue Blood; for ALANINE AMINOTRANSFERASE / ALBUMIN / ALKALINE PHOSPHATASE / ASPARTATE AMINOTRANSFERASE / BLOOD UREA NITROGEN / CARBON DIOXIDE / CHLORIDE / CHOLESTEROL / CREATINE PHOSPHOKINASE / CREATININE / GLUCOSE / LACTATE DEHYDROGENASE / LIPASE / PHOSPHORUS / POTASSIUM / SODIUM / TOTAL BILIRUBIN / TOTAL PROTEIN / URIC ACID: tissue Plasma
[1] = 0 mg/kg, 72 h, dose level Control, time 3 day
[2] = 0 mg/kg, 120 h, dose level Control, time 5 day
[3] = 10 mg/kg, 72 h, dose level Low, time 3 day

SMILES: CCOC(=O)[C@H](CCc1ccccc1)N[C@@H](C)C(=O)N1Cc2ccccc2C[C@H]1C(=O)O
- ABSOLUTE BASOPHIL [1]: 0 CELLS/uL
- ABSOLUTE EOSINOPHIL [1]: 0 CELLS/uL
- ABSOLUTE LYMPHOCYTE [1]: 12191.17 CELLS/uL
- ABSOLUTE MONOCYTE [1]: 183.17 CELLS/uL
- ABSOLUTE SEGMENTED NEUTROPHIL [1]: 1192.33 CELLS/uL
- BASOPHIL [1]: 0%
- EOSINOPHIL [1]: 0%
- ERYTHROCYTE COUNT [1]: 5.51 x10E6/uL
- HEMATOCRIT [1]: 35.45%
- HEMOGLOBIN [1]: 13.82 G/DL
- LEUKOCYTE COUNT [1]: 13.57 x10E3/uL
- LYMPHOCYTE [1]: 89.83%
- MEAN CORPUSCULAR HEMOGLOBIN [1]: 25.1 pg
- MEAN CORPUSCULAR HEMOGLOBIN CONCENTRATION [1]: 38.98 G/DL
- MEAN CORPUSCULAR VOLUME [1]: 64.42 fL
- MONOCYTE [1]: 1.33%
- NEUTROPHIL [1]: 8.83%
- NUCLEATED RED BLOOD CELLS [1]: 0 /100WBC
- PLATELET COUNT [1]: 1118.17 x10E3/uL
- ALANINE AMINOTRANSFERASE [1]: 55 u/L
- ALBUMIN [1]: 4.15 G/DL
- ALKALINE PHOSPHATASE [1]: 449.5 u/L
- ASPARTATE AMINOTRANSFERASE [1]: 112.83 u/L
- BLOOD UREA NITROGEN [1]: 17.33 mg/dL
- CARBON DIOXIDE [1]: 29.5 mmol/L
- CHLORIDE [1]: 101 MEQ/L
- CHOLESTEROL [1]: 70 mg/dL
- CREATINE PHOSPHOKINASE [1]: 1325.83 u/L
- CREATININE [1]: 0.18 mg/dL
- GLUCOSE [1]: 171.5 mg/dL
- LACTATE DEHYDROGENASE [1]: 386 u/L
- LIPASE [1]: 10 u/L
- PHOSPHORUS [1]: 11.57 mg/dL
- POTASSIUM [1]: 6.21 MEQ/L
- SODIUM [1]: 141.65 MEQ/L
- TOTAL BILIRUBIN [1]: 0.15 mg/dL
- TOTAL PROTEIN [1]: 5.75 G/DL
- URIC ACID [1]: 1.28 mg/dL
- ABSOLUTE BASOPHIL [2]: 0 CELLS/uL
- ABSOLUTE EOSINOPHIL [2]: 138.17 CELLS/uL
- ABSOLUTE LYMPHOCYTE [2]: 13283.17 CELLS/uL
- ABSOLUTE MONOCYTE [2]: 303.83 CELLS/uL
- ABSOLUTE SEGMENTED NEUTROPHIL [2]: 1308.17 CELLS/uL
- BASOPHIL [2]: 0%
- EOSINOPHIL [2]: 1%
- ERYTHROCYTE COUNT [2]: 5.32 x10E6/uL
- HEMATOCRIT [2]: 33.8%
- HEMOGLOBIN [2]: 13.63 G/DL
- LEUKOCYTE COUNT [2]: 15.03 x10E3/uL
- LYMPHOCYTE [2]: 88.33%
- MEAN CORPUSCULAR HEMOGLOBIN [2]: 25.68 pg
- MEAN CORPUSCULAR HEMOGLOBIN CONCENTRATION [2]: 40.35 G/DL
- MEAN CORPUSCULAR VOLUME [2]: 63.67 fL
- MONOCYTE [2]: 1.83%
- NEUTROPHIL [2]: 8.83%
- NUCLEATED RED BLOOD CELLS [2]: 0 /100WBC
- PLATELET COUNT [2]: 1097.5 x10E3/uL
- ALANINE AMINOTRANSFERASE [2]: 54.5 u/L
- ALBUMIN [2]: 4.27 G/DL
- ALKALINE PHOSPHATASE [2]: 337 u/L
- ASPARTATE AMINOTRANSFERASE [2]: 94.67 u/L
- BLOOD UREA NITROGEN [2]: 17 mg/dL
- CARBON DIOXIDE [2]: 28.33 mmol/L
- CHLORIDE [2]: 101.5 MEQ/L
- CHOLESTEROL [2]: 71.33 mg/dL
- CREATINE PHOSPHOKINASE [2]: 628.17 u/L
- CREATININE [2]: 0.19 mg/dL
- GLUCOSE [2]: 177.83 mg/dL
- LACTATE DEHYDROGENASE [2]: 500.5 u/L
- LIPASE [2]: 9.5 u/L
- PHOSPHORUS [2]: 12.3 mg/dL
- POTASSIUM [2]: 5.63 MEQ/L
- SODIUM [2]: 143.03 MEQ/L
- TOTAL BILIRUBIN [2]: 0.2 mg/dL
- TOTAL PROTEIN [2]: 6.02 G/DL
- URIC ACID [2]: 1.5 mg/dL
- ABSOLUTE BASOPHIL [3]: 0 CELLS/uL
- ABSOLUTE EOSINOPHIL [3]: 39 CELLS/uL
- ABSOLUTE LYMPHOCYTE [3]: 11213 CELLS/uL
- ABSOLUTE MONOCYTE [3]: 0 CELLS/uL
- ABSOLUTE SEGMENTED NEUTROPHIL [3]: 1148 CELLS/uL
- BASOPHIL [3]: 0%
- EOSINOPHIL [3]: 0.33%
- ERYTHROCYTE COUNT [3]: 5.3 x10E6/uL
- HEMATOCRIT [3]: 34.07%
- HEMOGLOBIN [3]: 13.93 G/DL
- LEUKOCYTE COUNT [3]: 12.4 x10E3/uL
- LYMPHOCYTE [3]: 90.33%
- MEAN CORPUSCULAR HEMOGLOBIN [3]: 26.33 pg
- MEAN CORPUSCULAR HEMOGLOBIN CONCENTRATION [3]: 40.9 G/DL
- MEAN CORPUSCULAR VOLUME [3]: 64.37 fL
- MONOCYTE [3]: 0%
- NEUTROPHIL [3]: 9.33%
- NUCLEATED RED BLOOD CELLS [3]: 0 /100WBC
- PLATELET COUNT [3]: 1446.33 x10E3/uL

Source: ChEMBL document CHEMBL3885881, “DrugMatrix”
